Measurements reported in PMC3399817 (PLoS ONE, 2012).

Assays:
Assay in all cases: KINOMEscan
Assay type in all cases: binding
AXL = biological target: T1, AXL (Homo sapiens, UniProt P30530); conditions: 1 uM
T1 construct: purchased Ambit KINOMEscan (DiscoverX)
Summary of the method: (§1)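 Panel profiling at one dose (1 μM) identifies kinases prevented from binding substrate by the test molecule.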

MST2 = biological target: T2, MST2 (Homo sapiens, UniProt Q13188); conditions: MST2, 1 uM
T2 construct: purchased Ambit KINOMEscan (DiscoverX)
Summary of the method: as §1

LKB1 = biological target: T3, LKB1 (Homo sapiens, UniProt Q15831); conditions: LKB1, 1 uM
T3 construct: purchased Ambit KINOMEscan (DiscoverX)
Summary of the method: as §1

ANKK1 = biological target: T4, ANKK1 (Homo sapiens, UniProt Q8NFD2); conditions: ANKK1, 1 uM
T4 construct: purchased Ambit KINOMEscan (DiscoverX)
Summary of the method: as §1

TTK = biological target: T5, TTK (Homo sapiens, UniProt P33981); conditions: 1 uM
T5 construct: purchased Ambit KINOMEscan (DiscoverX)
Summary of the method: as §1

FAK = biological target: T6, FAK (Homo sapiens, UniProt Q05397); conditions: 1 uM
T6 construct: purchased Ambit KINOMEscan (DiscoverX)
Summary of the method: as §1

MST4 = biological target: T7, MST4 (Homo sapiens, UniProt Q9P289); conditions: MST4, 1 uM
T7 construct: purchased Ambit KINOMEscan (DiscoverX)
Summary of the method: as §1

CDKL5 = biological target: T8, CDKL5 (Homo sapiens, UniProt O76039); conditions: CDKL5, 1 uM
T8 construct: purchased Ambit KINOMEscan (DiscoverX)
Summary of the method: as §1

DAPK1 = biological target: T9, DAPK1 (Homo sapiens, UniProt P53355); conditions: DAPK1, 1 uM
T9 construct: purchased Ambit KINOMEscan (DiscoverX)
Summary of the method: as §1

HIPK3 = biological target: T10, HIPK3 (Homo sapiens, UniProt Q9H422); conditions: HIPK3, 1 uM
T10 construct: purchased Ambit KINOMEscan (DiscoverX)
Summary of the method: as §1

MAP4K2 = biological target: T11, MAP4K2 (Homo sapiens, UniProt Q12851); conditions: for % binding compared to no inhibitor control: MAP4K2, 1 uM
T11 construct: purchased Ambit KINOMEscan (DiscoverX)
T11 sequence (Q12851 1-820): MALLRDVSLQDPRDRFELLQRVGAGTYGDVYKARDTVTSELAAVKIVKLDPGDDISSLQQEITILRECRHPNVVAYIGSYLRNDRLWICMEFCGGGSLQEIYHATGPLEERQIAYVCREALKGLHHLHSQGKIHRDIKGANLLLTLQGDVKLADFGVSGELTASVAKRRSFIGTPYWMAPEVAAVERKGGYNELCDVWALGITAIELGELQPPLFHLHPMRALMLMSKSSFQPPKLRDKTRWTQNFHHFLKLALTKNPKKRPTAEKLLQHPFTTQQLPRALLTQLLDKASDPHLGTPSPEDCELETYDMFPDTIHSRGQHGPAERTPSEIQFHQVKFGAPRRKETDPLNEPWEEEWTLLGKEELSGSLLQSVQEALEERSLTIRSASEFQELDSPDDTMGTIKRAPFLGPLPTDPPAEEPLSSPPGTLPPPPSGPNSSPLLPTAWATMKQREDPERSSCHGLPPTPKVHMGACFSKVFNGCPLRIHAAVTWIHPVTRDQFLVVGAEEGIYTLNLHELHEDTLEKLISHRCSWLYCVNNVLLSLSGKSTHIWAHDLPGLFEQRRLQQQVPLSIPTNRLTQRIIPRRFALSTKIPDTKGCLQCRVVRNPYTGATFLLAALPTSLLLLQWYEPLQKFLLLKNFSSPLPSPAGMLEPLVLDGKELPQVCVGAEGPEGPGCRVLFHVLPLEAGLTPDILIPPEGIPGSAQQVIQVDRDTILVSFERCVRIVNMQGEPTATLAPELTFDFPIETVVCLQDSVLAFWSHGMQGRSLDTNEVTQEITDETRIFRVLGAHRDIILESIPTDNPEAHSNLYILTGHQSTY
Summary of the method: as §1

CLK3 = biological target: T12, CLK3 (Homo sapiens, UniProt P49761); conditions: CLK3, 1 uM
T12 construct: purchased Ambit KINOMEscan (DiscoverX)
Summary of the method: as §1

MAP3K15 = biological target: T13, MAP3K15 (Homo sapiens, UniProt Q6ZN16); conditions: MAP3K15, 1 uM
T13 construct: purchased Ambit KINOMEscan (DiscoverX)
Summary of the method: as §1

CSNK2A1 = biological target: T14, CSNK2A1 (Homo sapiens, UniProt P68400); conditions: CSNK2A1, 1 uM
T14 construct: purchased Ambit KINOMEscan (DiscoverX)
Summary of the method: as §1

KIT(D816V) = biological target: T15, KIT(D816V) (Homo sapiens, UniProt P10721, D816V); conditions: 1 uM
T15 construct: purchased Ambit KINOMEscan (DiscoverX)
Summary of the method: as §1

TIE1 = biological target: T16, TIE1 (Homo sapiens, UniProt P35590); conditions: TIE1, 1 uM
T16 construct: purchased Ambit KINOMEscan (DiscoverX)
Summary of the method: as §1

DYRK2 = biological target: T17, DYRK2 (Homo sapiens, UniProt Q92630); conditions: DYRK2, 1 uM
T17 construct: purchased Ambit KINOMEscan (DiscoverX)
Summary of the method: as §1

VEGFR2 = biological target: T18, VEGFR2 (Homo sapiens, UniProt P35968); conditions: VEGFR2, 1 uM
T18 construct: purchased Ambit KINOMEscan (DiscoverX)
Summary of the method: as §1

MKNK1 = biological target: T19, MKNK1 (Homo sapiens, UniProt Q9BUB5); conditions: MKNK1, 1 uM
T19 construct: purchased Ambit KINOMEscan (DiscoverX)
Summary of the method: as §1

TBK1 = biological target: T20, TBK1 (Homo sapiens, UniProt Q9UHD2); conditions: TBK1, 1 uM
T20 construct: purchased Ambit KINOMEscan (DiscoverX)
Summary of the method: as §1

EPHB3 = biological target: T21, EPHB3 (Homo sapiens, UniProt P54753); conditions: EPHB3, 1 uM
T21 construct: purchased Ambit KINOMEscan (DiscoverX)
Summary of the method: as §1

DYRK1A = biological target: T22, DYRK1A (Homo sapiens, UniProt Q13627); conditions: 1 uM
T22 construct: purchased Ambit KINOMEscan (DiscoverX)
Summary of the method: as §1

NEK6 = biological target: T23, NEK6 (Homo sapiens, UniProt Q9HC98); conditions: NEK6, 1 uM
T23 construct: purchased Ambit KINOMEscan (DiscoverX)
Summary of the method: as §1

PIK3CG = biological target: T24, PIK3CG (Homo sapiens, UniProt P48736); conditions: 1 uM
T24 construct: purchased Ambit KINOMEscan (DiscoverX)
Summary of the method: as §1

PRKCH = biological target: T25, PRKCH (Homo sapiens, UniProt P24723); conditions: 1 uM
T25 construct: purchased Ambit KINOMEscan (DiscoverX)
Summary of the method: as §1

MEK3 = biological target: T26, MEK3 (Homo sapiens, UniProt P46734); conditions: MEK3, 1 uM
T26 construct: purchased Ambit KINOMEscan (DiscoverX)
Summary of the method: as §1

DAPK3 = biological target: T27, DAPK3 (Homo sapiens, UniProt O43293); conditions: DAPK3, 1 uM
T27 construct: purchased Ambit KINOMEscan (DiscoverX)
Summary of the method: as §1

TRKB = biological target: T28, TRKB (Homo sapiens, UniProt Q16620); conditions: 1 uM
T28 construct: purchased Ambit KINOMEscan (DiscoverX)
Summary of the method: as §1

PLK2 = biological target: T29, PLK2 (Homo sapiens, UniProt Q9NYY3); conditions: PLK2, 1 uM
T29 construct: purchased Ambit KINOMEscan (DiscoverX)
Summary of the method: as §1

PIK3CA(E542K) = biological target: T30, PIK3CA(E542K) (Homo sapiens, UniProt P42336, E542K); conditions: 1 uM
T30 construct: purchased Ambit KINOMEscan (DiscoverX)
Summary of the method: as §1

T3 sequence (Q15831 whole entry): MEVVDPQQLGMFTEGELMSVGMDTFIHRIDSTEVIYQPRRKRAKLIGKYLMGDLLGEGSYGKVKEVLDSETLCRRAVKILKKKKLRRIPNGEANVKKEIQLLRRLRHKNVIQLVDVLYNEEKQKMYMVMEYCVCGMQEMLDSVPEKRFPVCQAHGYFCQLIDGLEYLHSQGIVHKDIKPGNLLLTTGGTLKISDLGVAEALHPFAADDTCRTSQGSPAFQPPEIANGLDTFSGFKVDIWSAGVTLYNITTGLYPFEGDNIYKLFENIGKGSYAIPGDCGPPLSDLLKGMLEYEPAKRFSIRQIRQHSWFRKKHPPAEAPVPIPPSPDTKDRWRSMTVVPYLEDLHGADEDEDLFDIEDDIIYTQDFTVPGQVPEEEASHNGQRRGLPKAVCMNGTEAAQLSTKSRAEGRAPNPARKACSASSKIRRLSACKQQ
T29 sequence (Q9NYY3 whole entry): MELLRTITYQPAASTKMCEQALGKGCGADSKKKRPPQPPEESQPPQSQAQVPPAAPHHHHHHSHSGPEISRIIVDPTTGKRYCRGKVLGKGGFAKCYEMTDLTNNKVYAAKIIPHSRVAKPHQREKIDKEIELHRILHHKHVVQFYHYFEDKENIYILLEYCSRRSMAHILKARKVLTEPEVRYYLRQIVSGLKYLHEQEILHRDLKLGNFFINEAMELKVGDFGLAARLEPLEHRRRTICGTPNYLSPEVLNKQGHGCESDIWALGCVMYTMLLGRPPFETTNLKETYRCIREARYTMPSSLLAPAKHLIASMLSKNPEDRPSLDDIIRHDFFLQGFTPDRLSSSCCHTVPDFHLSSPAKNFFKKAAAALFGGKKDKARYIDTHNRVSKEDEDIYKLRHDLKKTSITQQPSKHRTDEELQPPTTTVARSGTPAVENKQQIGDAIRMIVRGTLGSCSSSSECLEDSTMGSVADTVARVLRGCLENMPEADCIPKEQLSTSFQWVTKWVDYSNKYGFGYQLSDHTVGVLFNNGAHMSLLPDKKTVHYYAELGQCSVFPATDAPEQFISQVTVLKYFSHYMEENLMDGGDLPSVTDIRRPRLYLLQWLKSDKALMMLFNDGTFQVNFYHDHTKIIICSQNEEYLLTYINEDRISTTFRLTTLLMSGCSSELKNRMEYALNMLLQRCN
T26 sequence (P46734 whole entry): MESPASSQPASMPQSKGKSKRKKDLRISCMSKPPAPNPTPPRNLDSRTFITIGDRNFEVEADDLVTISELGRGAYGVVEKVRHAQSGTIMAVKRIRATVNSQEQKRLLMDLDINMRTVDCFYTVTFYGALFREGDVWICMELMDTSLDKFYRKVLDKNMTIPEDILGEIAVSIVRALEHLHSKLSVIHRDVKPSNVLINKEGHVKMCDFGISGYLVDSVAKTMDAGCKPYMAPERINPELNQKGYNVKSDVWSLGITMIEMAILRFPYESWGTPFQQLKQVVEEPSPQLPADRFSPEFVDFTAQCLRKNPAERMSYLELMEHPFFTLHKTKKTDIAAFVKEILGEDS
T2 sequence (Q13188 whole entry): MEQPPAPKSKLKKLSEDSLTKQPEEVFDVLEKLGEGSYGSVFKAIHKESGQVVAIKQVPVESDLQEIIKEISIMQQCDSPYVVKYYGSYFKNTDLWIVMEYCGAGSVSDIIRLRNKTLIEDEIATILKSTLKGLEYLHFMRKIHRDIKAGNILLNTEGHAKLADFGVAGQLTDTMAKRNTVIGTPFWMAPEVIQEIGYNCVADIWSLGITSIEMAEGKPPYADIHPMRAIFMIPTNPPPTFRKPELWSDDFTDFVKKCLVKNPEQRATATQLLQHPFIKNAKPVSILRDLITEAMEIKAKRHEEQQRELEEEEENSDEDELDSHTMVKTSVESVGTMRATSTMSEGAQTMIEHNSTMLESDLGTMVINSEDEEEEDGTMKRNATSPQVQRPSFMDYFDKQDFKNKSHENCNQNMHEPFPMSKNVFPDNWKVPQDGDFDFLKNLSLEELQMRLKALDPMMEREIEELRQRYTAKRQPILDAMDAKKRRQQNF
T18 sequence (P35968 20-1356): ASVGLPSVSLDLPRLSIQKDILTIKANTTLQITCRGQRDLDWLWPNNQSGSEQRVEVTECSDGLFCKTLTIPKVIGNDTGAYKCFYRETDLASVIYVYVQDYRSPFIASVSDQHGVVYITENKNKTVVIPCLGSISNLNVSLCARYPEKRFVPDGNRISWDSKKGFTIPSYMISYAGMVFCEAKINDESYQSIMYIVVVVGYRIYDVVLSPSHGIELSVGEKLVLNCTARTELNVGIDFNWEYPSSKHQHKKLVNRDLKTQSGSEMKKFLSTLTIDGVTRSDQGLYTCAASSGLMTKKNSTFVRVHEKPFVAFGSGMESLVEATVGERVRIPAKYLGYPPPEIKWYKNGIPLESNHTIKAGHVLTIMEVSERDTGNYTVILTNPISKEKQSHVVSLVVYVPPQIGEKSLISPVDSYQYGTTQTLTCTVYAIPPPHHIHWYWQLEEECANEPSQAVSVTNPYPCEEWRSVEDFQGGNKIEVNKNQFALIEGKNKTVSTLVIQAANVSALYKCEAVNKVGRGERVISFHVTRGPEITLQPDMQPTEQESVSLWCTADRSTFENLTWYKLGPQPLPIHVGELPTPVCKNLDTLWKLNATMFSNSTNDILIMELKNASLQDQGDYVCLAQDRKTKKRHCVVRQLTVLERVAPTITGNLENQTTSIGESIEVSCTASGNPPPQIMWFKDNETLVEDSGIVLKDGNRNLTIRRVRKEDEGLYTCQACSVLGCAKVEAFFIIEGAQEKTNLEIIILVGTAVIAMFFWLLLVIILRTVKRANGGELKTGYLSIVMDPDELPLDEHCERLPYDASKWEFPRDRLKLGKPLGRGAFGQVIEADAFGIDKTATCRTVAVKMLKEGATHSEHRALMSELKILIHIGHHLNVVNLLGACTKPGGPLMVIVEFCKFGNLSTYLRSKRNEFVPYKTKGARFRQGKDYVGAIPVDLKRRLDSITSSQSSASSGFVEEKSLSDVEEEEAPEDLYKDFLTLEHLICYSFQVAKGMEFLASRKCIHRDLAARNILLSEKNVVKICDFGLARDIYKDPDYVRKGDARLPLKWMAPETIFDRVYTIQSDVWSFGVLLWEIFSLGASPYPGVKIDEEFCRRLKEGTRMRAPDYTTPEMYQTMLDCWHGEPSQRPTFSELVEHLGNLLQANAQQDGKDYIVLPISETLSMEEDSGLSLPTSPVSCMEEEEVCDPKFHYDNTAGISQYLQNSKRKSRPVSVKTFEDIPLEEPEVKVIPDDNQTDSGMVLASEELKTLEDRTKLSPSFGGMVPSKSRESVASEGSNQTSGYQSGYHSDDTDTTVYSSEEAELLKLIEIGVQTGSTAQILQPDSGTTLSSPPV
T24 sequence (P48736 whole entry): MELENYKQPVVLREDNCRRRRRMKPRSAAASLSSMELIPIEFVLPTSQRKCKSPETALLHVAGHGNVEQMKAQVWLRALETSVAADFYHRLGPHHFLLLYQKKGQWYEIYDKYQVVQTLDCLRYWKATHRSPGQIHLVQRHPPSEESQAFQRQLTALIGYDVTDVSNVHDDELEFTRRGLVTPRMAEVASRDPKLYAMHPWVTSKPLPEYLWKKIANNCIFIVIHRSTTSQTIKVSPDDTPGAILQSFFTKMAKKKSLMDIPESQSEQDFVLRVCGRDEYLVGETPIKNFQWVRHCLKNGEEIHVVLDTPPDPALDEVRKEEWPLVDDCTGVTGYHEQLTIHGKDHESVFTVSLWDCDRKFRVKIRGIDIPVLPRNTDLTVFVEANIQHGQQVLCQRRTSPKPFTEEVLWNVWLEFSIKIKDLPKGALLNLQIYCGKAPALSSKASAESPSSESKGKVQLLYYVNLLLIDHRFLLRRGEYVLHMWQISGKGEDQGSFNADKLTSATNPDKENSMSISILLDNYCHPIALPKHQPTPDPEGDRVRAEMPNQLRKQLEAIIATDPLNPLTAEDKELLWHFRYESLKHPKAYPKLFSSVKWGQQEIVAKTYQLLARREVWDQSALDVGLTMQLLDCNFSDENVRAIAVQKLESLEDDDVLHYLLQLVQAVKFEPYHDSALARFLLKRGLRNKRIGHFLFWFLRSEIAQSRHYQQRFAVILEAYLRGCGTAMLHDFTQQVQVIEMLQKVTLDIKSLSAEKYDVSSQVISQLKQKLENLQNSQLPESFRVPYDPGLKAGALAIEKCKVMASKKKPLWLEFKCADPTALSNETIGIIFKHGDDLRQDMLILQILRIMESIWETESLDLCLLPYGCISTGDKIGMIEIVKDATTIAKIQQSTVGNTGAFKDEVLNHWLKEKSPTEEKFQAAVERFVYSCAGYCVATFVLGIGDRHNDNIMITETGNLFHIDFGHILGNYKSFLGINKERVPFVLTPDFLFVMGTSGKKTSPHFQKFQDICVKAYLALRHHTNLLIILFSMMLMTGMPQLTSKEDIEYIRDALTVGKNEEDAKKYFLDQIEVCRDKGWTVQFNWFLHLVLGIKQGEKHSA
T12 sequence (P49761 whole entry): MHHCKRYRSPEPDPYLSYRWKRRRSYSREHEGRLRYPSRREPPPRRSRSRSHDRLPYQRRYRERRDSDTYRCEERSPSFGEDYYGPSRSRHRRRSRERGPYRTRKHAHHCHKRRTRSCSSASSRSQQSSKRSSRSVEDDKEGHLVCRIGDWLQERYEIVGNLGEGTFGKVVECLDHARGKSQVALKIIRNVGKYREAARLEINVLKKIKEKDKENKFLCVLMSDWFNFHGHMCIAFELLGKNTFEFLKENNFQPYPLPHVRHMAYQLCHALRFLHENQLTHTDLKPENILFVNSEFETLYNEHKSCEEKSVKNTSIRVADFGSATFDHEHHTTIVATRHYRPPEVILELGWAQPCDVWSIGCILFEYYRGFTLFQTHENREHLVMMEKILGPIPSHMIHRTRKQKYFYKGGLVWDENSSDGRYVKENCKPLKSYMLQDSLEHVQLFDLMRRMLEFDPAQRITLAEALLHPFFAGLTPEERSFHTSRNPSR

SMILES | % binding compared to no inhibitor control (AXL) | % binding compared to no inhibitor control (MST2) | % binding compared to no inhibitor control (LKB1) | % binding compared to no inhibitor control (ANKK1) | % binding compared to no inhibitor control (TTK) | % binding compared to no inhibitor control (FAK) | % binding compared to no inhibitor control (MST4) | % binding compared to no inhibitor control (CDKL5) | % binding compared to no inhibitor control (DAPK1) | % binding compared to no inhibitor control (HIPK3) | % binding compared to no inhibitor control (MAP4K2) | % binding compared to no inhibitor control (CLK3) | % binding compared to no inhibitor control (MAP3K15) | % binding compared to no inhibitor control (CSNK2A1) | % binding compared to no inhibitor control (KIT(D816V)) | % binding compared to no inhibitor control (TIE1) | % binding compared to no inhibitor control (DYRK2) | % binding compared to no inhibitor control (VEGFR2) | % binding compared to no inhibitor control (MKNK1) | % binding compared to no inhibitor control (TBK1) | further results
COc1ccc(-c2cc3nccn3c(Nc3ncccc3C(N)=O)n2)cc1OC.Cl.Cl [BAY61-3606, 2-[7-(3,4-dimethoxyphenyl)-imidazo [1,2-c]pyrimidin-5-ylamino] nicotinamide dihydrochloride, reference compound] | 92% | 97% | 95% | 21% | 51% | 69% | 57% | 60% | 66% | 36% | 6% | 100% | 100% | 70% | 4.7% | 100% | 24% | 94% | 52% | 47% | % inhibition ATP binding (MAP4K2; MAP4K2, KINOMEscan, 1 μM): 94%; % binding compared to no inhibitor control (EPHB3): 98%; % binding compared to no inhibitor control (DYRK1A): 24%; % binding compared to no inhibitor control (NEK6): 63%; % binding compared to no inhibitor control (PIK3CG): 26%; % binding compared to no inhibitor control (PRKCH): 58%; % binding compared to no inhibitor control (MEK3): 21%; % binding compared to no inhibitor control (DAPK3): 71%; % binding compared to no inhibitor control (TRKB): 83%; % binding compared to no inhibitor control (PLK2): 50%; % binding compared to no inhibitor control (PIK3CA(E542K)): 99%
COc1ccccc1Nc1nc(-c2ccc(OC)c(OC)c2)cc2nccn12 [BAY derivative 6] | 89% | 82% | 72% | 100% | 74% | 95% | 72% | 100% | 76% | 95% | 100% | 100% | 86% | 86% | 22% | 94% | 56% | 100% | 72% | 100% | % binding compared to no inhibitor control (EPHB3): 84%; % binding compared to no inhibitor control (DYRK1A): 100%; % binding compared to no inhibitor control (NEK6): 100%; % binding compared to no inhibitor control (PIK3CG): 100%; % binding compared to no inhibitor control (PRKCH): 100%; % binding compared to no inhibitor control (MEK3): 94%; % binding compared to no inhibitor control (DAPK3): 100%; % binding compared to no inhibitor control (TRKB): 74%; % binding compared to no inhibitor control (PLK2): 100%; % binding compared to no inhibitor control (PIK3CA(E542K)): 100%
